The source made the active and inactive calls.
Legend:
Bcl-2-related protein A1 [1] = target: T1, Bcl-2-related protein A1 (Mus musculus, UniProt Q07440); assay: Bfl-1 inhibitors blocking BH3 peptide binding, confirmation, biochemical, TR-FRET, mouse Bfl-1 (AID 621);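 note: TR-FRET binding of GST-Bfl-1 to FITC-labelled Bid peptide via terbium antibody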
T1 sequence (Q07440 whole entry): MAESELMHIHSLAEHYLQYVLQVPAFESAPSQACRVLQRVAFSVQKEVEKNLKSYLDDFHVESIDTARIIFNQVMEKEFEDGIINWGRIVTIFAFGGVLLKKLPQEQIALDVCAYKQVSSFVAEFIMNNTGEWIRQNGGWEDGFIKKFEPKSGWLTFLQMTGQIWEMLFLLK

Protein skinhead-1 = target: T2, Protein skinhead-1 (Caenorhabditis elegans, UniProt P34707); format: functional
T2 sequence (P34707 whole entry): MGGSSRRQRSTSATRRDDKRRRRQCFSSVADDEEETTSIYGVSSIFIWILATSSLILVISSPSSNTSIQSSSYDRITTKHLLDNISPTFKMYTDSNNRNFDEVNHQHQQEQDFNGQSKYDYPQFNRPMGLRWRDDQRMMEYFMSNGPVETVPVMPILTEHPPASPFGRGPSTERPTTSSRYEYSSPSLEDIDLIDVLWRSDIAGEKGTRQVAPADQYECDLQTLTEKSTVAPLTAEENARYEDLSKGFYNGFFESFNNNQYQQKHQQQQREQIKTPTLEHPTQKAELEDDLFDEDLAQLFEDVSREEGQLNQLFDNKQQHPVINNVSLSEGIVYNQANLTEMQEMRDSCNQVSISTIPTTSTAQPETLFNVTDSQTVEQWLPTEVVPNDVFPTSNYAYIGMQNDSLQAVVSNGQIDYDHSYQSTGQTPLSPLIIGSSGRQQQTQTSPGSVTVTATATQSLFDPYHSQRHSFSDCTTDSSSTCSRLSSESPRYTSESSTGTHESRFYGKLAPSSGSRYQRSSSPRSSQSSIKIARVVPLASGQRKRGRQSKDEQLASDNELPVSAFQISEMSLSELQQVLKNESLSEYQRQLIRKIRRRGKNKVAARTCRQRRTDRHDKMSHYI

Bcl-2-related protein A1 [2] = target: T1, Bcl-2-related protein A1; assay: Bfl-1 binding inhibitors, SAR follow-up, biochemical, fluorescence polarization (AID 1070)
[3] = target: T3, Oxysterols receptor LXR-beta (Homo sapiens, UniProt P55055); format: functional, cell-based;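 note: agonist activity at LXR measured by a cell-based luminescence readout across a dose range, run as a counterscreen for daf-12 agonists; HEK293 cells with Gal4-LXR fusion and GAL4-driven luciferase reporter; potency for activation of Gal4-LXR reporter so compounds are agonists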
T3 sequence (P55055 whole entry): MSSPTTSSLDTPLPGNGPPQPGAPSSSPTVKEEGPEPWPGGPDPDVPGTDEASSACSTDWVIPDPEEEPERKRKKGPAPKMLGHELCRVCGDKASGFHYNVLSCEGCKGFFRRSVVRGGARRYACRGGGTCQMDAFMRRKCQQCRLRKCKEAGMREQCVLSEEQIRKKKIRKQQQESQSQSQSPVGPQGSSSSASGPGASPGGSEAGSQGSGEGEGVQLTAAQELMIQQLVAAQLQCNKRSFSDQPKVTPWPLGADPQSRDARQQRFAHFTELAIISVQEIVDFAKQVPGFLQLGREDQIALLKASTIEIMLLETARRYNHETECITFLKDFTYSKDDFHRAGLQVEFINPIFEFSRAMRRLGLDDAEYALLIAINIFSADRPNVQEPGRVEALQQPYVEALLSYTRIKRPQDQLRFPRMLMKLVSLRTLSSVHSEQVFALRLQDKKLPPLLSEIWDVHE

[4] = target: Complement C1s subcomponent (Homo sapiens, UniProt P09871); assay: Complement C1s ELISA. [Related pubchem assays: 538, 787 ]; format: functional
Nonstructural protein 1 = Nonstructural protein 1 (Influenza A virus, UniProt Q194T2); format: functional, Influenza A virus (A/California/07/2009(H1N1))
cells [5] = format: functional, cell-based
Beta-galactosidase = Beta-galactosidase (Escherichia coli, UniProt Q8VNN2); format: functional
[6] = target: E3 ubiquitin-protein ligase Mdm2 (Homo sapiens, UniProt Q00987); assay: enhancers of MDM2-luciferase reporter signal, concentration-effect titration, project on inhibitors of MDM2 ubiquitin ligase, cellular assay, luminescent readout, 384-well plate format (AID 1394); format: functional;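 note: MDM2 E3 inhibitors raise luminescence so EC50 is for signal enhancement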
[7] = target: T4, Kappa-type opioid receptor (Homo sapiens, UniProt P41145); format: functional
[8] = Luminescence Cell-Based Dose Retest to Confirm Inhibitors of Cancer Stem Cells. [Related pubchem assays (depositor defined):AID2717, AID2721]; format: functional; conditions: Homo sapiens
cells [9] = format: functional, cell-based; remark: listed apart in the source
[10] = target: T4, Kappa-type opioid receptor; format: functional; remark: listed apart in the source
[11] = M. tuberculosis growth inhibition, HTS (AID 449762); format: functional
[12] = Luminescent dose response cell-based high throughput screening assay for inhibitors of the Janus kinase 2 mutant JAK2V617F. [Related pubchem assays: 1446 (Primary screen.), 1521 (Confirmation assay.), 1486 (Counter screen.)]; format: functional
[13] = target: Voltage-gated inwardly rectifying potassium channel KCNH2 (Homo sapiens, UniProt Q12809); assay: hERG protection from proarrhythmic block, potency, dose response, cell-based, thallium flux (AID 2121); format: ADME
14-3-3 protein gamma = 14-3-3 protein gamma (Homo sapiens, UniProt P61981); assay: modulators of 14-3-3 gamma client binding – dose response (AID 711); format: functional
[14] = target: Peroxisome proliferator-activated receptor gamma/Nuclear receptor corepressor 2 (Homo sapiens, UniProt P37231+Q9Y618); assay: Counterscreen for NR2E3 inverse agonists: TR-FRET-based biochemical high throughput dose response assay to identify inverse agonists of the interaction between peroxisome proliferator-activated receptor gamma (PPARg) and nuclear receptor co-repressor 2 (NCOR2).; format: functional
[15] = target: Photoreceptor-specific nuclear receptor (Homo sapiens, UniProt Q9Y5X4); assay: NR2E3 inverse agonists, dose response, biochemical, TR-FRET (AID 463256); format: functional
[16] = target: RNA-editing ligase 1, mitochondrial (Trypanosoma brucei brucei, UniProt P86926); assay: TbREL1 ligase inhibitors, dose response, biochemical, fluorescence, Trypanosoma brucei (AID 1117295); format: functional
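Throughout, for AC50: cells exposed to compound for roughly 70 hours or longer before luminescence read.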

T4 sequence (P41145 whole entry): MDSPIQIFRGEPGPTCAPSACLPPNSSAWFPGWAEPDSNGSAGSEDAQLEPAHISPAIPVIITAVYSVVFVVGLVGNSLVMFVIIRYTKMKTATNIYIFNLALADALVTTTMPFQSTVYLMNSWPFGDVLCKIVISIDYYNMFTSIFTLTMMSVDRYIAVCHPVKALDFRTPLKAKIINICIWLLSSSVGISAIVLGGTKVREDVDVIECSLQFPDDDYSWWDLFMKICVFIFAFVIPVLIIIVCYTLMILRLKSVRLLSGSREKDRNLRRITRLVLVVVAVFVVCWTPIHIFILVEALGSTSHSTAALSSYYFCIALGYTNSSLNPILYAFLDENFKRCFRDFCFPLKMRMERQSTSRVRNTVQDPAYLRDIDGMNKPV
Chain of E3 ubiquitin-protein ligase Mdm2 (Q00987 whole entry): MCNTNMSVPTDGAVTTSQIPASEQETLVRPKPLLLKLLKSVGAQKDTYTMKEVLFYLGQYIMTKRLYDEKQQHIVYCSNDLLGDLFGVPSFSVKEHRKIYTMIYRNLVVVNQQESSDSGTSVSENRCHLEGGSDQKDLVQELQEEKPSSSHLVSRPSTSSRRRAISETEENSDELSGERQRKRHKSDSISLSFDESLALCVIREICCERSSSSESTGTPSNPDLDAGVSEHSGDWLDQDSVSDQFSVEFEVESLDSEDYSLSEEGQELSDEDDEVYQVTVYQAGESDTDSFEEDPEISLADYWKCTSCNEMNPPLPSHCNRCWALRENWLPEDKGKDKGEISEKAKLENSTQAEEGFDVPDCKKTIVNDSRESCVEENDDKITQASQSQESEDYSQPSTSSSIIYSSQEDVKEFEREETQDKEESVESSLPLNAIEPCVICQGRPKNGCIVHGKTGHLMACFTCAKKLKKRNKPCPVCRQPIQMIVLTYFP
Chain of Voltage-gated inwardly rectifying potassium channel KCNH2 (Q12809 whole entry): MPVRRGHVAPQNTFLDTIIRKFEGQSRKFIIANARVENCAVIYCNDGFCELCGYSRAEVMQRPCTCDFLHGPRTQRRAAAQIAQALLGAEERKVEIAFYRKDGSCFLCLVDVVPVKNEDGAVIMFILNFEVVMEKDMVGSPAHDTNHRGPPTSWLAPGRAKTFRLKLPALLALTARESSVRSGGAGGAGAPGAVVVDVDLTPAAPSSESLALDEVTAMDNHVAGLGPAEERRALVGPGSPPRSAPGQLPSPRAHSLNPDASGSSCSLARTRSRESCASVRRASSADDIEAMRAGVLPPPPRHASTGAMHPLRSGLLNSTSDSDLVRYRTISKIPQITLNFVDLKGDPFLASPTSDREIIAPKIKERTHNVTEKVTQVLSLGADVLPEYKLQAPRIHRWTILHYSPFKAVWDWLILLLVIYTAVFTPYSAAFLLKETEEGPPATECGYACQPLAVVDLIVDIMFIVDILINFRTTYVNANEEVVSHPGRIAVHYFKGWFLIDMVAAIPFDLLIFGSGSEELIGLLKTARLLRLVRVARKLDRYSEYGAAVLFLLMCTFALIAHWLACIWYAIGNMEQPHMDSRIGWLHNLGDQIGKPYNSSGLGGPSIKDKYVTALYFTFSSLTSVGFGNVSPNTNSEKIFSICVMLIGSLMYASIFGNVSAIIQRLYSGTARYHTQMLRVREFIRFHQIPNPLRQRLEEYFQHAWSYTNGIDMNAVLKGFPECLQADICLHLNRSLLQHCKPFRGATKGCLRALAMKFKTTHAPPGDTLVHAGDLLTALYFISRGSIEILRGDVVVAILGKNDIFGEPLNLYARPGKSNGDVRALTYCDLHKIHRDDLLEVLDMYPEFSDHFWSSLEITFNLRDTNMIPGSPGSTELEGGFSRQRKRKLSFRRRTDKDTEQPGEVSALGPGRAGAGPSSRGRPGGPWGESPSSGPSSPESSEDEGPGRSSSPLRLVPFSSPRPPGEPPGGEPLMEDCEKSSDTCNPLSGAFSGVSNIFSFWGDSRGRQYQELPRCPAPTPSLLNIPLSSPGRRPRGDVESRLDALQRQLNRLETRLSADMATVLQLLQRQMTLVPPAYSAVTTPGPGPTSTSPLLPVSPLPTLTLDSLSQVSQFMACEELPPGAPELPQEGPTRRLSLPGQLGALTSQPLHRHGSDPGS
Chain of Peroxisome proliferator-activated receptor gamma/Nuclear receptor corepressor 2 (P37231 whole entry): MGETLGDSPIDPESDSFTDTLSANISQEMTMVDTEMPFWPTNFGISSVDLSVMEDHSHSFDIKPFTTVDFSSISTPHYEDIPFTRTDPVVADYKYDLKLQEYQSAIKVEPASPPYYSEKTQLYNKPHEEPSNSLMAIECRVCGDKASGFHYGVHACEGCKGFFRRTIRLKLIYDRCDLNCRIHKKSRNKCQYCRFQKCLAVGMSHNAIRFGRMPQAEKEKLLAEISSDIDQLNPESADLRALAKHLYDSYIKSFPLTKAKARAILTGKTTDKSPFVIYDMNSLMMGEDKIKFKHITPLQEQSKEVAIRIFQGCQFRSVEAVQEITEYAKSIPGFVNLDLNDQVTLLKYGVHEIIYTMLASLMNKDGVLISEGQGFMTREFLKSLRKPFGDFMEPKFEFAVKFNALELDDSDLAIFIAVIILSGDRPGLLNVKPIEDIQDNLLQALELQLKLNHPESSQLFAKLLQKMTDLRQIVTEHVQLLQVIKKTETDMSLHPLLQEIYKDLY
Chain of Peroxisome proliferator-activated receptor gamma/Nuclear receptor corepressor 2 (Q9Y618 whole entry): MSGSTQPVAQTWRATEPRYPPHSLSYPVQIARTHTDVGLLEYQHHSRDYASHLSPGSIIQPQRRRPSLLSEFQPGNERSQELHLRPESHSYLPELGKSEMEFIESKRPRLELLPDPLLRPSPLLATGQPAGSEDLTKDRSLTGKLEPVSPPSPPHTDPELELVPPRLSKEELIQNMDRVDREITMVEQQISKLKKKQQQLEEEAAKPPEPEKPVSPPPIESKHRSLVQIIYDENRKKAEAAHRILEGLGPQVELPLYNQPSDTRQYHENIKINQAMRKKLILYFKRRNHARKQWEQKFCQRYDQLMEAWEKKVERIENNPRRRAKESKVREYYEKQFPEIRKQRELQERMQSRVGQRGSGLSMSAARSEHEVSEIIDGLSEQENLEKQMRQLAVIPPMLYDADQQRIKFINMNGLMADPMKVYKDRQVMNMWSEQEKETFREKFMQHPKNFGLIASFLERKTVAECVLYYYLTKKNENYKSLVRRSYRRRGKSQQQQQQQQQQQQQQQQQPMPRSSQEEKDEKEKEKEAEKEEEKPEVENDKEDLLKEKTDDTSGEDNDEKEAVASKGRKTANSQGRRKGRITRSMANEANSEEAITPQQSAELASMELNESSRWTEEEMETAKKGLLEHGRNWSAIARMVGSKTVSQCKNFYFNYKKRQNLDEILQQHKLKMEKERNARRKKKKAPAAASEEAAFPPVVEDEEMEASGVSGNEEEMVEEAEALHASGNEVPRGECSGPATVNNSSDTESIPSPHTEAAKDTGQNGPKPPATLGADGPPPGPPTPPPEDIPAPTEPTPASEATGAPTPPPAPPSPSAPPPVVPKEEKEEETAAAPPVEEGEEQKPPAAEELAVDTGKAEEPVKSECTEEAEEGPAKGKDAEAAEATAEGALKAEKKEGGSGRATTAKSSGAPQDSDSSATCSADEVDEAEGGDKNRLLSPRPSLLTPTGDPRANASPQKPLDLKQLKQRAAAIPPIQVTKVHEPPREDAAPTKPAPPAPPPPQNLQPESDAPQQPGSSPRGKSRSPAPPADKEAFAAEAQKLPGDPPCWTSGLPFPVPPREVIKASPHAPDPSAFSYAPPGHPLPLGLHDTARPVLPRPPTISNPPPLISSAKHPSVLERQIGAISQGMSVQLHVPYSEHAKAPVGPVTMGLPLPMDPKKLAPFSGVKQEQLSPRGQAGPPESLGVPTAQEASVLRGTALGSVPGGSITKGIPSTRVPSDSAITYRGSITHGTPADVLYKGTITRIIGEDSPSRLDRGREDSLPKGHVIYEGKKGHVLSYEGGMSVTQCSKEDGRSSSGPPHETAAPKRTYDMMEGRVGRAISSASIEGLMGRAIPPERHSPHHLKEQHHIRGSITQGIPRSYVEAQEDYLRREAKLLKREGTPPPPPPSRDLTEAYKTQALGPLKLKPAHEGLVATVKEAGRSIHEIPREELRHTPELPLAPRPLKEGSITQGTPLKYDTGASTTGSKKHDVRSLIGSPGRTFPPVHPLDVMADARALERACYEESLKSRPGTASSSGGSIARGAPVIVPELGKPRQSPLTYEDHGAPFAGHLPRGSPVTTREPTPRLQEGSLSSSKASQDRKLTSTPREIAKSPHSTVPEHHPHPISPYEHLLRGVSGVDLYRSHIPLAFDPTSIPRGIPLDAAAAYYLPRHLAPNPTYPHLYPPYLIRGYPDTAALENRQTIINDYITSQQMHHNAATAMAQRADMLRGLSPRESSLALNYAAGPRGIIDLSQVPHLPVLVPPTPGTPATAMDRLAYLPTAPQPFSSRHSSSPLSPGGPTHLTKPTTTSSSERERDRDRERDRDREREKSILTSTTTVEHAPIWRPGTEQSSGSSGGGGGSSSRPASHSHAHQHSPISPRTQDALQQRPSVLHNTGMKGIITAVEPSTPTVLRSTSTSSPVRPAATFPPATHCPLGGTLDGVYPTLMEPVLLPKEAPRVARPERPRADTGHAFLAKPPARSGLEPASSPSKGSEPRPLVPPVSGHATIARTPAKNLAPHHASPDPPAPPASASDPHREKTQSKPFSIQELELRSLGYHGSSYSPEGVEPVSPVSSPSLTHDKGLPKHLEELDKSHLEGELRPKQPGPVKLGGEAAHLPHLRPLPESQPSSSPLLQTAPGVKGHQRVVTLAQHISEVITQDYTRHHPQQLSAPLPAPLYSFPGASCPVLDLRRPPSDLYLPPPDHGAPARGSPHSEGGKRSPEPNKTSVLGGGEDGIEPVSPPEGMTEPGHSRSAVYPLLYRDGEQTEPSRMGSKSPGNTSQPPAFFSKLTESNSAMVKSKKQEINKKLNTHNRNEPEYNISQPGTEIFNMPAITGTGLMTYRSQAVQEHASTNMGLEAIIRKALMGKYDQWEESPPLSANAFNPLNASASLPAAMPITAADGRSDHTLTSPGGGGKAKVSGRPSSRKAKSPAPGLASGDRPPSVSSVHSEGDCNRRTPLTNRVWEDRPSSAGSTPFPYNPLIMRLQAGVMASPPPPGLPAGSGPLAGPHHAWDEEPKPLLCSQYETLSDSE

Compound: Fc1ccc(-n2nnc(-c3cccnc3Cl)n2)cc1
- IC50 (Bcl-2-related protein A1 [1]): > 100 µM (not active)
- IC50 (Protein skinhead-1): 21 µM (active)
- IC50 (Bcl-2-related protein A1 [2]): > 100 µM (not active)
- EC50 [3]: > 67.5 µM (inactive)

Compound: O=c1c(-c2ccco2)[n+]([O-])c2ccccc2n1OCc1ccccn1
- IC50 [4]: > 50 µM (not active)

Compound: O=C(CSC1=NNC(c2ccccn2)S1)Nc1ccc(C(F)(F)F)cc1 (stereo not given)
- IC50 (Nonstructural protein 1): 7.8 µM (active)
- EC50 (cells [5]): 15.6 µM (active)
- EC50 (Beta-galactosidase): > 31.5 µM (inactive)
- EC50 [6]: 43.2 µM (not active)
- IC50 [7]: > 32 µM
- AC50 [8]: 3.51 µM (active)
- EC50 (cells [9]): > 350 µM (not active)
- IC50 [10]: > 31.5 µM (inactive)

Compound: CC1(c2ccc(Cl)c(Cl)c2)N=C(S)N2C1N=C(S)N2c1ccccc1 (stereo not given)
- IC50 [11]: > 100 µM (active)

Compound: O=S(=O)(c1cnc(Cl)c(Cl)c1)N1CCc2ccccc21
- IC50 [12]: 3.96 µM (active)

Compound: C=CCN(CC=C)C(=S)NC(=O)/C=C/c1ccc(OC)cc1
- EC50 [13]: 3.01 µM (active)

Compound: CNC(=O)C(Sc1ccccc1)c1ccccc1 (stereo not given)
- IC50 (14-3-3 protein gamma): > 50 µM (not active)

Compound: O=C(Nc1nccs1)c1cc(-c2ccccn2)nc2c(Cl)cccc12
- IC50 [14]: 2.89 µM (active)
- IC50 [15]: 3.87 µM (active)

Compound: Clc1ccc(CN=C(Nc2ccccc2)NC2CCCCC2)cc1
- IC50 [16]: > 96.6 µM (inactive)
